Patent US7906504B2, “2-(1-oxo-1H-isoquinolin-2-yl)acetamide derivatives” (N.V. Organon, priority 2006, dated 2011)
pIC50, pKi: −log10 of the molar value.

Assays:
V3 receptor = biological target: T1, V3 receptor (Rattus norvegicus, UniProt P48974); test: Block of AVP-induced ACTH release from isolated rat anterior pituitary corticotrophs; format: cell-based; settings: ACTH release after 3x10^-9 mol/L AVP for 120 minutes; ELISA; read-out: V3 receptor antagonism in isolated rat anterior pituitary cells
T1 construct: Anterior pituitary corticotrophs were prepared from adult female Sprague-Dawley rats; endogenous in cells; host or cells: primary anterior pituitary corticotrophs from adult female Sprague-Dawley rats
T1 sequence (P48974 1-425): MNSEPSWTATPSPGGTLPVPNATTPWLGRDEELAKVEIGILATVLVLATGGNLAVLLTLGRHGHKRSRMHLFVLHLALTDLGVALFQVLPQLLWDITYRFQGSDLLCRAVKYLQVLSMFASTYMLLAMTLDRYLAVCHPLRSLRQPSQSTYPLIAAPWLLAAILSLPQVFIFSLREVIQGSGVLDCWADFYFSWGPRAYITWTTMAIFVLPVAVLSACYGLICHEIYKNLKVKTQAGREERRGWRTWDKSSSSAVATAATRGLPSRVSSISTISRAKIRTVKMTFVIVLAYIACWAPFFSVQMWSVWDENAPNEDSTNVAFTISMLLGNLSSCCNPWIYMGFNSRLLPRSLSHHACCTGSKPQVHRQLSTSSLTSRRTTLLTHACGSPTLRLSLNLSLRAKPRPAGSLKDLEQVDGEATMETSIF
Protocol: The ability of compounds of the invention to act as V3 antagonists in a physiologically relevant system was determined by measuring their ability to block the release of adrenocorticotropic hormone (ACTH) from anterior pituitary corticotrophs in response to treatment with arginine vasopressin (AVP).
Anterior pituitary corticotrophs were prepared from adult female Sprague-Dawley rats and seeded into 48 well plates. The cells were cultured for 4 days prior to exposure to compound. Test compounds were prepared at 10^−5 mol.L^−1 in 100% DMSO. Cells were exposed to a dose response of test compounds for 20 minutes (10^−8 mol.L^−1−10^−5 mol.L^−1). The final concentration of DMSO in the assay was kept constant at 0.3%. The cells were then exposed to 3×10^−9 mol.L^−1 AVP for 120 minutes. Supernatants were harvested and stored at −20° C. ACTH levels were subsequently measured by ELISA following the manufacturer's instructions (Immunodiagnostic systems, UK (Cat No. DX-SDX018)). Each treatment was carried out in quadruplicate and a mean value obtained for the amount of ACTH released. The degree of antagonism was then calculated as a percentage of the amount of ACTH released by agonist alone after adjustment for basal levels of ACTH. A pIC50 was calculated by fitting a Sigmoidal dose response (variable slope) curve with a non-linear (fit) to the data using the software package GraphPad prism. […]

human V3 receptor = biological target: T2, human V3 receptor (Homo sapiens, UniProt P47901); test: [3H]AVP binding to CHO cells stably expressing the human V3 receptor; settings: [3H]AVP 2.5x10^-9 mol/L
T2 construct: expressed in transfected cells
T2 sequence (P47901 1-424): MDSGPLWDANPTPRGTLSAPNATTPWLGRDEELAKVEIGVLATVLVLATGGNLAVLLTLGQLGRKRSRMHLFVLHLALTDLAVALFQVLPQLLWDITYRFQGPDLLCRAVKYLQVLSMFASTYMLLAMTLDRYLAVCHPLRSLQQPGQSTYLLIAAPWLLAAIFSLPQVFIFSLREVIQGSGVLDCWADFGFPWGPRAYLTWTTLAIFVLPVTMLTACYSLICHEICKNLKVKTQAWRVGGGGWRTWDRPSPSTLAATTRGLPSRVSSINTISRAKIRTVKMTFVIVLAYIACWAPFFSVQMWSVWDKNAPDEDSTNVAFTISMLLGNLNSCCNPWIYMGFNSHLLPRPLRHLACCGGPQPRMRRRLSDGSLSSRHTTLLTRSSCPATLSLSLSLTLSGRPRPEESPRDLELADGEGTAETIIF
Protocol: Chinese Hamster Ovary (CHO) cells stably expressing the human V3 receptor were incubated to equilibrium with the test compound (at a final assay concentration of 10^−10 mol.L^−1 to 10^−5 mol.L^−1) and [^3H]AVP (at a final assay concentration of 2.5×10^−9 mol.L^−1). […] After washing with ice-cold phosphate buffered saline (PBS), scintillation fluid was added and the plates counted on a Topcount NXT apparatus.
A sigmoidal dose response curve (non-linear regression, variable slope) was plotted as concentration of test compound (mol.L^−1) against percentage specific binding of [^3H]AVP and a Ki value was calculated. Each determination was carried out in triplicate and repeated on at least 3 separate occasions

In the case of `CC(C)NC(=O)Cn1c(-c2cccc(Cl)c2)cc2ccc(OC[C@@H](C)CN3CCCC3)cc2c1=O` [EXAMPLE 1, 2-[3-(3-Chlorophenyl)-7-((S)-2-methyl-3-pyrrolidin-1-ylpropoxy)-1-oxo-1H-isoquinolin-2-yl]-N-isopropylacetamide], the pIC50 (V3 receptor) was 6.00 to 7.00.
`CC(C)NC(=O)Cn1c(-c2cccc(F)c2)cc2ccc(OC[C@@H](C)CN(C)C)cc2c1=O` [EXAMPLE 3, 2-[7-((S)-3-Dimethylamino-2-methylpropoxy)-3-(3-fluorophenyl)-1-oxo-1H-isoquinolin-2-yl]-N-isopropylacetamide] gave a pKi (human V3 receptor) of 7.00 to 8.00.
In the case of `COc1cccc(-c2cc3ccc(OC[C@@H](C)CN4CCCCC4)cc3c(=O)n2CC(=O)NC(C)C)c1` [EXAMPLE 14, N-Isopropyl-2-[3-(3-methoxyphenyl)-7-((S)-2-methyl-3-piperidin-1-ylpropoxy)-1-oxo-1H-isoquinolin-2-yl]acetamide], the pKi (human V3 receptor) was 6.00 to 7.00.
`CC(C)(C)NC(=O)Cn1c(-c2cccc(Cl)c2)cc2ccc(OCCCN3CCC(O)CC3)cc2c1=O` [EXAMPLE 17, N-tert-Butyl-2-{3-(3-Chlorophenyl)-7-[3-(4-hydroxypiperidin-1-yl)-propoxy]-1-oxo-1H-isoquinolin-2-yl}-acetamide] showed a pIC50 (V3 receptor) of 7.00 to 8.00.
In the case of `COc1cccc(-c2cc3ccc(OCCCN4CCCC4)cc3c(=O)n2CC(=O)NC(C)(C)C)n1` [EXAMPLE 23, N-tert-Butyl-2-[3-(6-methoxypyridin-2-yl)-1-oxo-7-(3-pyrrolidin-1-ylpropoxy)-1H-isoquinolin-2-yl]acetamide], the pKi (human V3 receptor) was 7.00 to 8.00.
`CC(C)NC(=O)Cn1c(-c2ccccc2)cc2ccc(OCCCN3CCCCC3)cc2c1=O` [EXAMPLE 26, N-Isopropyl-2-[1-oxo-3-phenyl-7-(3-piperidin-1-ylpropoxy)-1H-isoquinolin-2-yl]acetamide] showed a pKi (human V3 receptor) greater than 8.00.
`CC(C)(C)NC(=O)Cn1c(-c2ccc(F)c(Cl)c2)cc2ccc(OCCCN3CCCC3)cc2c1=O` [EXAMPLE 28, N-tert-Butyl-2-[3-(3-chloro-4-fluorophenyl)-1-oxo-7-(3-pyrrolidin-1-ylpropoxy)-1H-isoquinolin-2-yl]acetamide] gave a pKi (human V3 receptor) of 6.00 to 7.00.
For `CC(C)NC(=O)Cn1c(-c2cccc(Cl)c2)cc2ccc(-c3cccc(CN4CCCCC4)c3)cc2c1=O` [EXAMPLE 35, 2-[3-(3-Chlorophenyl)-1-oxo-7-(3-piperidin-1-ylmethylphenyl)-1H-isoquinolin-2-yl]-N-isopropylacetamide], the pKi (human V3 receptor) was 7.00 to 8.00.
